Biological target: T1, human M1 receptor (hCHRM1) (Homo sapiens, UniProt P11229)
T1 construct: expressed in transfected cells
T1 sequence (P11229 1-460): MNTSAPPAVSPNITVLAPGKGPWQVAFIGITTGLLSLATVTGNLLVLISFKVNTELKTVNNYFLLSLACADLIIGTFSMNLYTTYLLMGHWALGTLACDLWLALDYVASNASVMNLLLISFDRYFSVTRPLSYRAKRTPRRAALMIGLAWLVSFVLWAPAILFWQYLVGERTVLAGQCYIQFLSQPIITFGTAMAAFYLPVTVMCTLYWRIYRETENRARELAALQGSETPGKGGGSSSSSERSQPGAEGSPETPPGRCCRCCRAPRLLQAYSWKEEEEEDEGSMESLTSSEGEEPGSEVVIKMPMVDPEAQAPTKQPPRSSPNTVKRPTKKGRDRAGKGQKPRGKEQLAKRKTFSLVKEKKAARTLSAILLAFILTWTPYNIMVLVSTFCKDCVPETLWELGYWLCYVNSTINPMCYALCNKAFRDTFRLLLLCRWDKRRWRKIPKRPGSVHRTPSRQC
Assay: Measurement of M1 receptor positive allosteric modulator (M1PAM) activity, calcium fluorescence (FLIPRtetra) with acetylcholine at EC20
Format: cell-based
Conditions: for activity (%) at 10 μM: 10 μM test compound, 100% = acetylcholine 1 μM, 0% = DMSO, acetylcholine at EC20; for EC50: inflection point of concentration-dependent curve, CHO-K1 cells expressing hCHRM1, acetylcholine at EC20 (final 0.6-0.8 nM), read-out: IP value
Experimental: The activity of a test compound in the presence of acetylcholine at EC20 concentration (final concentration 0.6-0.8 nM), which affords an action corresponding to about 20% of the maximum activity, was measured as PAM activity. The method is as follows. CHO-K1 cells stably expressing a human M1 receptor (hCHRM1) were plated on a 384-well black clear bottom plate (BD Falcon) at 5,000 cells/well, and cultured in an incubator at 37° C., 5% CO2 for 1 day. The medium in the cell plate was removed, and assay buffer A (Recording medium (DOJINDO LABORATORIES), 0.1% BSA (Wako Pure Chemical Industries, Ltd.), 2.5 μg/mL Fluo-4 AM (DOJINDO LABORATORIES), 0.08% Pluronic F127 (DOJINDO LABORATORIES), 1.25 mM probenecid (DOJINDO LABORATORIES)) containing a calcium indicator was added at 30 μL/well. The cells were left standing in the incubator at 37° C., 5% CO2 for 30 min, and further left standing at room temperature for 30 min. A test compound prepared by diluting with assay buffer B (HBSS (Invitrogen), 20 mM HEPES (Invitrogen), 0.1% BSA) containing 2.4-3.2 nM acetylcholine was added at 10 μL/well, and the fluorescence was measured by FLIPRtetra (Molecular Devices) for 1 min every 1 second. With the definition that the amount of change in the fluorescence on addition of acetylcholine (final concentration 1 μM) is 100% and that on addition of DMSO instead of a test compound is 0%, the activity (%) of the test compound was calculated, and the inflection point in the concentration-dependent curve of the test compound was calculated as IP values.

Row | SMILES | activity (%) at 10 μM | EC50
1 | Cc1cc2c(cc1Cc1ccc(-c3cnn(C)c3)cc1)C(=O)N([C@H]1CCC[C@@H]1O)C2 (racemic) [Example 67, rac-2-(trans-2-hydroxycyclopentyl)-5-methyl-6-(4-(1-methyl-1H-pyrazol-4-yl)benzyl)isoindolin-1-one] | 93% | 26 nM
2 | COc1ccc(Cc2cc3c(c(F)c2C)CN([C@H]2COCC[C@@H]2O)C3=O)cc1 [Example 150, 4-fluoro-2-[(3S,4S)-4-hydroxytetrahydro-2H-pyran-3-yl]-6-(4-methoxybenzyl)-5-methyl-2,3-dihydro-1H-isoindol-1-one] | 89% | 14 nM
3 | Cc1cc2c(cc1Cc1ccc(-c3ccn(C)n3)cc1)C(=O)N([C@H]1CCC[C@@H]1O)C2 (racemic) [Example 51, rac-2-(trans-2-hydroxycyclopentyl)-5-methyl-6-(4-(1-methyl-1H-pyrazol-3-yl)benzyl)isoindolin-1-one] | 86% | 42 nM
4 | Cc1cc2c(cc1Cc1ccc(-c3cn(C)nc3C)nc1)C(=O)N([C@H]1CCC[C@@H]1O)C2 (racemic) [Example 40, rac-6-((6-(1,3-dimethyl-1H-pyrazol-4-yl)pyridin-3-yl)methyl)-2-(trans-2-hydroxycyclopentyl)-5-methylisoindolin-1-one] | 97% | 37 nM
5 | COc1ccc(Cc2cc3c(c(C)c2C)CN([C@H]2CCCC[C@@H]2O)C3=O)cc1 [Example 141, 2-((1S,2S)-2-hydroxycyclohexyl)-6-(4-methoxybenzyl)-4,5-dimethylisoindolin-1-one] | 106% | 18 nM
6 | Cc1c(Cc2ccc(-c3cn(C)nn3)cc2)cc2c(c1C)CN(C[C@@H]1CCCO1)C2=O [Example 14, 4,5-dimethyl-6-(4-(1-methyl-1H-1,2,3-triazol-4-yl)benzyl)-2-((2S)-tetrahydrofuran-2-ylmethyl)isoindolin-1-one] | 94% | 1.2 nM
7 | CCc1cc2c(cc1Cc1ccc(-c3cn(C)nn3)cc1)C(=O)N(CC1CCCO1)C2 (stereo not drawn) [Example 105, 5-ethyl-6-(4-(1-methyl-1H-1,2,3-triazol-4-yl)benzyl)-2-(tetrahydrofuran-2-ylmethyl)isoindolin-1-one] | 92% | 10 nM
8 | Cc1c(Cc2ccc(-n3cccn3)cc2)cc2c(c1F)CN([C@H]1CCC[C@@H]1O)C2=O (racemic) [Example 79, rac-4-fluoro-2-(trans-2-hydroxycyclopentyl)-5-methyl-6-(4-(1H-pyrazol-1-yl)benzyl)isoindolin-1-one] | 93% | 72 nM
9 | Cc1c(Cc2ccc(-n3cccn3)cc2)cc2c(c1C)CN([C@H]1CCC[C@@H]1O)C2=O (racemic) [Example 34, rac-2-(trans-2-hydroxycyclopentyl)-4,5-dimethyl-6-(4-(1H-pyrazol-1-yl)benzyl)isoindolin-1-one] | 108% | 18 nM
10 | Cc1cc2c(cc1Cc1ccc(-c3cnn(C)c3)cc1)C(=O)N(CC1CCCO1)C2 (stereo not drawn) [Example 68, 5-methyl-6-(4-(1-methyl-1H-pyrazol-4-yl)benzyl)-2-(tetrahydrofuran-2-ylmethyl)isoindolin-1-one] | 95% | 96 nM
11 | CNC(=O)c1ccc(Cc2cc3c(c(C)c2C)CN(CC(C)(C)O)C3=O)cc1F [Example 138, 2-fluoro-4-((2-(2-hydroxy-2-methylpropyl)-6,7-dimethyl-3-oxo-2,3-dihydro-1H-isoindol-5-yl)methyl)-N-methylbenzamide] | 106% | 25 nM
12 | Cc1cc2c(cc1Cc1ccc(-n3cccn3)cc1)C(=O)N(CC(C)(C)O)C2 [Example 104, 2-(2-hydroxy-2-methylpropyl)-5-methyl-6-(4-(1H-pyrazol-1-yl)benzyl)isoindolin-1-one] | 101% | 54 nM
13 | COc1ccc(Cc2cc3c(c(Cl)c2C)CN([C@H]2CCCC[C@@H]2O)C3=O)cc1 [Example 151, 4-chloro-2-((1S,2S)-2-hydroxycyclohexyl)-6-(4-methoxybenzyl)-5-methylisoindolin-1-one] | 92% | 16 nM
14 | Cc1cc2c(cc1Cc1ccc(-c3ccn(C)n3)nc1)C(=O)N([C@H]1CCCC[C@@H]1O)C2 (racemic) [Example 42, rac-2-(trans-2-hydroxycyclohexyl)-5-methyl-6-((6-(1-methyl-1H-pyrazol-3-yl)pyridin-3-yl)methyl)isoindolin-1-one] | 115% | 9.2 nM
15 | Cc1cc2c(cc1Cc1ccc(-c3cn(C)nn3)cc1F)C(=O)N([C@H]1CCC[C@@H]1O)C2 (racemic) [Example 53, rac-6-(2-fluoro-4-(1-methyl-1H-1,2,3-triazol-4-yl)benzyl)-2-(trans-2-hydroxycyclopentyl)-5-methylisoindolin-1-one] | 103% | 28 nM
16 | Cc1c(Cc2ccc(-c3ccn(C)n3)cc2)cc2c(c1C)CN([C@H]1CCCC[C@@H]1O)C2=O (racemic) [Example 82, rac-2-(trans-2-hydroxycyclohexyl)-4,5-dimethyl-6-(4-(1-methyl-1H-pyrazol-3-yl)benzyl)isoindolin-1-one] | 91% | 5.7 nM

More lines, in order of falling EC50, values ahead:

Row | activity (%) at 10 μM | EC50 | SMILES
17 | 101% | 98 nM | Cc1cc2c(cc1Cc1ccc(-c3cn(C)nc3C)cc1)C(=O)N([C@H]1CCC[C@@H]1O)C2 (racemic) [Example 55, rac-6-(4-(1,3-dimethyl-1H-pyrazol-4-yl)benzyl)-2-(trans-2-hydroxycyclopentyl)-5-methylisoindolin-1-one]
18 | 91% | 60 nM | COc1c(Cc2ccc(-n3cccn3)cc2)cc2c(c1Cl)CN([C@H]1CCC[C@@H]1O)C2=O (racemic) [Example 92, rac-4-chloro-2-(trans-2-hydroxycyclopentyl)-5-methoxy-6-(4-(1H-pyrazol-1-yl)benzyl)isoindolin-1-one]
19 | 97% | 35 nM | Cn1cc(-c2ccc(Cc3cc4c(cc3C3CC3)CN(CC3CCCO3)C4=O)cc2)nn1 (stereo not drawn) [Example 61, 5-cyclopropyl-6-(4-(1-methyl-1H-1,2,3-triazol-4-yl)benzyl)-2-(tetrahydrofuran-2-ylmethyl)isoindolin-1-one]
20 | 111% | 28 nM | COc1ccc(Cc2cc3c(c(C)c2C)CN([C@H]2COCC[C@@H]2O)C3=O)cc1F [Example 158, 6-(3-fluoro-4-methoxybenzyl)-2-[(3S,4S)-4-hydroxytetrahydro-2H-pyran-3-yl]-4,5-dimethyl-2,3-dihydro-1H-isoindol-1-one]
21 | 90% | 18 nM | Cc1c(Cc2ccc(Cl)cc2)cc2c(c1C)CN([C@H]1COCC[C@@H]1O)C2=O [Example 17, 1,5-anhydro-2-(6-(4-chlorobenzyl)-4,5-dimethyl-1-oxo-1,3-dihydro-2H-isoindol-2-yl)-2,4-dideoxy-L-threo-pentitol]
22 | 86% | 16 nM | Cc1c(Cc2ccc(C#N)cc2F)cc2c(c1C)CN([C@H]1COCC[C@@H]1O)C2=O [Example 124, 3-fluoro-4-({2-[(3S,4S)-4-hydroxytetrahydro-2H-pyran-3-yl]-6,7-dimethyl-3-oxo-2,3-dihydro-1H-isoindol-5-yl}methyl)benzonitrile]
23 | 106% | 4.8 nM | Cc1c(Cc2ccc(-c3cnn(C)c3)nc2)cc2c(c1C)CN([C@H]1CCCC[C@@H]1O)C2=O (racemic) [Example 28, rac-2-(trans-2-hydroxycyclohexyl)-4,5-dimethyl-6-((6-(1-methyl-1H-pyrazol-4-yl)pyridin-3-yl)methyl)isoindolin-1-one]
24 | 101% | 2 nM | CNC(=O)c1ccc(Cc2cc3c(c(C)c2C)CN([C@H]2COCC[C@@H]2O)C3=O)cc1F [Example 19, 1,5-anhydro-2,4-dideoxy-2-(6-(3-fluoro-4-(methylcarbamoyl)benzyl)-4,5-dimethyl-1-oxo-1,3-dihydro-2H-isoindol-2-yl)-L-threo-pentitol]

— US9315458B2, “Nitrogen-containing heterocyclic compound” (Takeda Pharmaceutical Company Limited, priority 2014, dated 2016)
